Literature values as cited in patent publication US12605434B2, “Composition for preventing or treating autoimmune diseases” (STATENS SERUM INSTITUT, priority 2021, dated 2026).

System: Th17 polarization

CC1=C(/C=C/C(C)=C/C=C/C(C)=C/C(=O)O)C(C)(C)CCC1 [ATRA, all-trans retinoic acid]
FoxP3 expression (Elias_2008, Kwok_2012): enhancing FoxP3 expression
Th17 polarization (Elias_2008, Kwok_2012): inhibit the Th17 polarization
RORγT in T cells (Mucinda_2007): reduction of RORγT
